We go through six compounds from US10851080B2, “Methods of treatment using pyrrolidinyl urea, thiourea, guanidine and cyanoguanidine compounds” (Array BioPharma Inc., priority 2012, dated 2020).

In assay [1] the test system is off-target kinases. Nature of the assay: KinaseProfiler full kinase panel (overall). As to conditions: 10 μM; for activity against off-target kinases: full kinase panel; for selectivity for inhibiting TrkA versus other kinases in the panel: panel of about 230 kinases. Type of assay: biochemical. The procedure:
Two representative compounds (Example 2, 14) of the invention were tested for off-target kinase activity at a concentration of 10 μM by Millipore, Inc. in their KinaseProfiler™ service against all the kinases available in their full kinase panel. These compounds were run in duplicate at a concentration of ATP near the Km for each individual kinase according to Millipore's specifications. The results are shown in Table B. Data are reported as percent of control (POC) and are the average of the two replicates.
Such a drug profile would represent a safer approach to treating pain, inflammation, cancer and certain skin diseases than has been previously reported.

For assay [2], the target named is His-tagged recombinant human TrkA (Homo sapiens (Human), UniProt P04629). Nature of the assay: TrkA LanthaScreen Eu Kinase Binding Assay. To be noted: averaged IC50, TrkA binding assay of Example A; read-out: TrkA Enzyme IC50. On the procedure:
TrkA binding activity was determined in a TrkA LanthaScreen™ Eu Kinase Binding Assay. 5 nM His-tagged recombinant human TrkA (6HIS tagged cytoplasmic domain from Invitrogen, Catalog No. PV3144) was incubated with 4 nM Alexa-Fluor® Tracer 236 (Invitrogen Cat. No. PV5592), 2 nM biotinylated anti-His (Invitrogen Cat. No. PV6090), and 2 nM europium-labeled Streptavidin (Invitrogen Cat. No. PV5899), in buffer (25 mM MOPS, pH 7.5, 5 mM MgCl2, 0.005% Triton X-100). Three fold serial dilutions of compounds of the invention in DMSO were added to a final percentage of 2% DMSO. After 60-minute incubation at 22° C., the reaction was measured using the EnVision mutlimode plate reader (PerkinElmer) via TR-FRET dual wavelength detection at […]. The percent of control was calculated using a ratiometric emission factor. The IC50 values were determined by fitting a four parameter model to the percent of control data.
Table A provides averaged IC50 values for compounds of the invention when tested in the assay of Example A, where A represents an averaged IC50 value <100 nM.
(In general: In TR-FRET formats the signal depends on donor and acceptor labels being close together.)

The structures appear in SMILES notation. Some results are limits rather than exact numbers.

Sequence of His-tagged recombinant human TrkA (P04629 440-796): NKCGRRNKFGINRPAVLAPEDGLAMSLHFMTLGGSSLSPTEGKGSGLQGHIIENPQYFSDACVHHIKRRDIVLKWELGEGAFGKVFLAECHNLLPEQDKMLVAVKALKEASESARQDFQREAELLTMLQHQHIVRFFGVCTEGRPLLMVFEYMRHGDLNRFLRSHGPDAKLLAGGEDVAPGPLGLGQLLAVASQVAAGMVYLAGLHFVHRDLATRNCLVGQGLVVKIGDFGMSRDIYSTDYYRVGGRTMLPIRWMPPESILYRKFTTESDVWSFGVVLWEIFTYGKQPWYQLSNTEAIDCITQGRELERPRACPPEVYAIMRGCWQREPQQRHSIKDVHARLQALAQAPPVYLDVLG

`COCCN1C[C@@H](NC(=O)Nc2c(C)c(-c3cnc(C)nc3)nn2-c2ccccc2)[C@H](c2cc(F)cc(F)c2)C1` [Example 14, 1-((3S,4R)-4-(3,5-difluorophenyl)-1-(2-methoxyethyl)pyrrolidin-3-yl)-3-(4-methyl-3-(2-methylpyrimidin-5-yl)-1-phenyl-1H-pyrazol-5-yl)urea]: in assay [1], the “activity against off-target kinases” value was “largely inactive”; the “selectivity for inhibiting TrkA versus other kinases in the panel” value was “remarkable and unexpected selectivity”.

With `COCCN1C[C@@H](NC(=O)Nc2c(C)c(-c3ccnc(C)c3)nn2-c2ccccc2)[C@H](c2ccc(F)c(F)c2)C1` [Example 2, 1-((3S,4R)-4-(3,4-difluorophenyl)-1-(2-methoxyethyl)pyrrolidin-3-yl)-3-(4-methyl-3-(2-methylpyridin-4-yl)-1-phenyl-1H-pyrazol-5-yl)urea], in assay [1], the “activity against off-target kinases” value is “largely inactive”; the “selectivity for inhibiting TrkA versus other kinases in the panel” value is “remarkable and unexpected selectivity”.

On to `COCCN1C[C@@H](NC(=O)Nc2c(C)c(-c3ccc(=O)n(C)c3)nn2-c2ccccc2)[C@H](c2cc(F)cc(Cl)c2)C1` (relative stereo) [Example 24, 1-(trans-4-(3-chloro-5-fluorophenyl)-1-(2-methoxyethyl)pyrrolidin-3-yl)-3-(4-methyl-3-(1-methyl-6-oxo-1,6-di hydropyridin-3-yl)-1-phenyl-1H-pyrazol-5-yl)urea], for which, in assay [2], the IC50 was below 100 nM.

With `COCCN1C[C@@H](NC(=O)Nc2c(C)c(-c3ccc(=O)n(C)c3)nn2-c2ccccc2)[C@H](c2ccc(F)c(Cl)c2)C1` (relative stereo) [Example 22, 1-(trans-4-(3-chloro-4-fluorophenyl)-1-(2-methoxyethyl)pyrrolidin-3-yl)-3-(4-methyl-3-(1-methyl-6-oxo-1,6-di hydropyridin-3-yl)-1-phenyl-1H-pyrazol-5-yl)urea], in assay [2], the IC50 was below 100 nM.

As to `COCCN1C[C@@H](NC(=O)Nc2c(C)c(-c3ccc(=O)n(C)c3)nn2-c2ccccc2)[C@H](c2cccc(Cl)c2)C1` (relative stereo) [Example 25, 1-(trans-4-(3-chlorophenyl)-1-(2-methoxyethyl)pyrrolidin-3-yl)-3-(4-methyl-3-(1-methyl-6-oxo-1,6-di hydropyridin-3-yl)-1-phenyl-1H-pyrazol-5-yl)urea], the half-inhibitory concentration (IC50) in assay [2] is below 100 nM.

On to `COCCN1C[C@@H](NC(=O)Nc2c(C)c(-c3ccc(=O)n(C)c3)nn2-c2ccccc2)[C@H](c2ccc(Cl)c(F)c2)C1` (relative stereo) [Example 23, 1-(trans-4-(4-chloro-3-fluorophenyl)-1-(2-methoxyethyl)pyrrolidin-3-yl)-3-(4-methyl-3-(1-methyl-6-oxo-1,6-dihydropyridin-3-yl)-1-phenyl-1H-pyrazol-5-yl)urea], for which the IC50 in assay [2] was below 100 nM.

The IC50 is the concentration needed to halve the response being measured.
